Molecular target: T1, MyD88^TIR (Homo sapiens, UniProt Q99836)
T1 construct: MyD88 (residues 148–296); 6xHis; made in house; host or cells: E. coli BL21 (DE3)
Assay: T‐Surf phage library (P8 and P3) selection against MyD88^TIR, four rounds, NGS read counts
Assay type: binding
Details: for Population: 4th round of selection against MyD88 TIR, share of NGS reads; for P3_MyD88 Rank (after) / P3_MyD88 Rank (before): P3 library; for P8_MyD88 Rank (after) / P8_MyD88 Rank (before): P8 library
In short: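 Four panning rounds on TIR domain adsorbed at 5 µg mL^−1; binding 1 h at 20–22 °C, elution with 100 mM HCl. Output: NGS read counts of round‐4 pools versus naïve library.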

[1] = P3_MyD88: rank by count after grouping
[2] = P3_MyD88: rank by count before grouping
[3] = P8_MyD88: rank by count after grouping
[4] = P8_MyD88: rank by count before grouping
[5] = P8_MyD88 pool: P8 T-Surf phage library
[6] = 4R selection against MyD88, rank after grouping
[7] = 4R selection against MyD88, rank before grouping
[8] = selection against MyD88, rank after grouping
[9] = selection against MyD88, rank before grouping
[10] = selection against MyD88 TIR, rank by count after grouping
[11] = selection against MyD88 TIR, rank by count before grouping
[12] = selection against MyD88, rank by count after grouping
[13] = selection against MyD88, rank by count before grouping
[14] = P3_MyD88 pool: P3 T-Surf phage library
[15] = P8_MyD88: rank by NGS read count after grouping
[16] = P8_MyD88: rank by NGS read count before grouping

T1 sequence (Q99836 148-296): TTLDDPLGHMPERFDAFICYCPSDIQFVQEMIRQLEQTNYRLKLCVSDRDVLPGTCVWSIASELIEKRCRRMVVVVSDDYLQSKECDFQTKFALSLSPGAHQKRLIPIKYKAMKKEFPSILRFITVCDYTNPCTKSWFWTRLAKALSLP

With DTKLKKGESIAPERLP the “Rank (after)” value [1] was 116 and the “Rank (before)” value [2] was 973.
With DSDPGSDLLIKIWAAL the “Rank (after)” value [3] was 166, the “Rank (before)” value [4] was 185 and the Population [5] was 0.00694%.
For SSCREGLWRLLELIKK, the “P3_MyD88 Rank (after)” value [6] was 607 and the “P3_MyD88 Rank (before)” value [7] was 3259.
With YTALNNSGFNTFRDND the “Rank (after)” value [1] was 188 and the “Rank (before)” value [2] was 1704.
In the case of SSFREGLWRLQALSKK, the “Rank (after)” value [1] is reported as 458 and the “Rank (before)” value [2] is reported as 3185.
For DPHDPQWFYERLVRLI, the “P8_MyD88 Rank (after)” value [8] was 495 and the “P8_MyD88 Rank (before)” value [9] was 3035.
With FHGDELRDNFIRYLVW the “P8_MyD88 Rank (after)” value [10] was 252 and the “P8_MyD88 Rank (before)” value [11] was 421.
For YNFISHLYDALRLNKIAPF, the “P3_MyD88 Rank (after)” value [6] was 634 and the “P3_MyD88 Rank (before)” value [7] was 1728.
YASYDDNDYYWMTHVLLRHM was tested, and the “P8_MyD88 Rank (after)” value [12] was 771 and the “P8_MyD88 Rank (before)” value [13] was 1816.
For NELVNVWSSKANSQVG, the “P3_MyD88 Rank (after)” value [12] was 691 and the “P3_MyD88 Rank (before)” value [13] was 3451.
With DPQDLDWFYDRLLYSLHVTE the “Rank (after)” value [3] was 420 and the “Rank (before)” value [4] was 1088.
YAASPWWLVELVQIVG was tested, and the “P8_MyD88 Rank (after)” value [12] was 752 and the “P8_MyD88 Rank (before)” value [13] was 1758.
Sequence NQWRNALTKVASL has a Population [14] of 0.00378%.
In the case of EAFAVHENISKKTLK, the “P3_MyD88 Rank (after)” value [6] is reported as 611 and the “P3_MyD88 Rank (before)” value [7] is reported as 2194.
In the case of DLLLCVFQTFFARLTE, the “Rank (after)” value [15] is reported as 948 and the “Rank (before)” value [16] is reported as 2592.
For DPQDLEWFYERLLAR, the “P8_MyD88 Rank (after)” value [8] was 515 and the “P8_MyD88 Rank (before)” value [9] was 2879.
With DPQDLEWFYERLFSR the “Rank (after)” value [3] was 450 and the “Rank (before)” value [4] was 1113.
With SSFREGLWRLLELRKK the Population [14] was 0.0032%.
With SSFRKGLWRLLELSKK the Population [14] was 0.00408%.
For EWIREQFRRALKERLP, the “P3_MyD88 Rank (after)” value [8] was 503 and the “P3_MyD88 Rank (before)” value [9] was 2131.
For LGYHWNDGEYFVGIKD, the “P8_MyD88 Rank (after)” value [8] was 489 and the “P8_MyD88 Rank (before)” value [9] was 3306.
With EWNRKQKRPDQKERLQ the “P3_MyD88 Rank (after)” value [6] was 608 and the “P3_MyD88 Rank (before)” value [7] was 2185.
With DWEWEYLRPNLEGTAG the “P8_MyD88 Rank (after)” value [12] was 768 and the “P8_MyD88 Rank (before)” value [13] was 2488.
For SENYVTSPCAVDELVP, the “P3_MyD88 Rank (after)” value [12] was 712 and the “P3_MyD88 Rank (before)” value [13] was 2957.
With LKVESWRQALEKAGN the “Rank (after)” value [1] was 126 and the “Rank (before)” value [2] was 1081.
WFWQKLNYAMPHLARL was tested, and the “P8_MyD88 Rank (after)” value [10] was 200 and the “P8_MyD88 Rank (before)” value [11] was 271.
With YASYDDNDYYWVTHVLLSR the “P8_MyD88 Rank (after)” value [6] was 638 and the “P8_MyD88 Rank (before)” value [7] was 1808.
For DPQDLDCYYERLVSLF, the “Rank (after)” value [15] was 1004 and the “Rank (before)” value [16] was 2741.
For LNVESWRKALEKAGKL, the “P3_MyD88 Rank (after)” value [10] was 230 and the “P3_MyD88 Rank (before)” value [11] was 2403.
SSFREGLWRLPELSRK was tested, and the “Rank (after)” value [1] was 121 and the “Rank (before)” value [2] was 3183.
With LEWGEPIVLEKQRSVT the “P3_MyD88 Rank (after)” value [8] was 563 and the “P3_MyD88 Rank (before)” value [9] was 2328.
DWEWDYRLPNLEGPPG was tested, and the “Rank (after)” value [15] was 891 and the “Rank (before)” value [16] was 2486.
For NDSLFWDRLLYSLHVTE, the “Rank (after)” value [3] was 187 and the “Rank (before)” value [4] was 270.
PQELEWCYERLVSLIL was tested, and the “P8_MyD88 Rank (after)” value [10] was 240 and the “P8_MyD88 Rank (before)” value [11] was 3497.
With DPQDTDWFYERLVSMF the “P8_MyD88 Rank (after)” value [8] was 499 and the “P8_MyD88 Rank (before)” value [9] was 2976.
For KMQKWNDALYEAAHLR, the “P3_MyD88 Rank (after)” value [6] was 636 and the “P3_MyD88 Rank (before)” value [7] was 3714.
DPQGLVWLYERLFSQI was tested, and the “Rank (after)” value [15] was 918 and the “Rank (before)” value [16] was 2663.
With HFAFSSWALDELANIL the “P8_MyD88 Rank (after)” value [10] was 282 and the “P8_MyD88 Rank (before)” value [11] was 612.
For LGYYWNDWEYVVGIEE, the “Rank (after)” value [15] was 884 and the “Rank (before)” value [16] was 3218.
With EPQDLDWFYERLVSLL the “Rank (after)” value [3] was 94 and the “Rank (before)” value [4] was 478.
With YASYDDNYYYWVTHVLLRRL the “Rank (after)” value [15] was 969 and the “Rank (before)” value [16] was 1775.
In the case of DPMVAEWVLNHLRFEL, the “P8_MyD88 Rank (after)” value [10] is reported as 193 and the “P8_MyD88 Rank (before)” value [11] is reported as 246.
For LQNQWELALTKKTKLV, the “P3_MyD88 Rank (after)” value [12] was 733 and the “P3_MyD88 Rank (before)” value [13] was 2336.
NELVHEISKKMKIFATI was tested, and the “Rank (after)” value [1] was 398 and the “Rank (before)” value [2] was 3443.
RISAFHQQLVMALNTQ was tested, and the “P3_MyD88 Rank (after)” value [6] was 614 and the “P3_MyD88 Rank (before)” value [7] was 2599.
DPQDLEWFYERLVSLL showed a Population [5] of 0.0224%.

Reference: article PMC11714206, “Massively Parallel Screening of Toll/Interleukin‐1 Receptor (TIR)‐Derived Peptides Reveals Multiple Toll‐Like Receptors (TLRs)‐Targeting Immunomodulatory Peptides” (Advanced Science, 2024)
